Experimental data taken from BindingDB's records for doi:10.1016/S0960-894X(01)80539-4 (1994).

Target: Sigma-1 receptor (Cavia porcellus)
Assay: In vitro binding affinity towards sigma receptor by the displacement of [3H]PPP from guinea pig brain

Structure (SMILES)	IC50
O=S(=O)(CCCN1CCN(c2ncc(F)cn2)CC1)c1ccc(F)cc1 [5-Fluoro-2-{4-[3-(4-fluoro-benzenesulfonyl)-propyl]-piperazin-1-yl}-pyrimidine]	> 0.045 µM
O=C(OC(CCCN1CCN(c2ncc(F)cn2)CC1)c1ccc(F)cc1)c1ccccc1 (configuration not stated) [Benzoic acid 1-(4-fluoro-phenyl)-4-[4-(5-fluoro-pyrimidin-2-yl)-piperazin-1-yl]-butyl ester]	3.5 µM
OC(CCCN1CCN(c2ncc(F)cn2)CC1)c1ccc(F)c2ccccc12 (configuration not stated) [1-(4-Fluoro-naphthalen-1-yl)-4-[4-(5-fluoro-pyrimidin-2-yl)-piperazin-1-yl]-butan-1-ol]	0.088 µM
NC(CCCN1CCN(c2ncc(F)cn2)CC1)C1CCCCC1 (configuration not stated) [1-Cyclohexyl-4-[4-(5-fluoro-pyrimidin-2-yl)-piperazin-1-yl]-butylamine]	0.052 µM
CC(=O)NC(CCCN1CCN(c2ncc(F)cn2)CC1)c1ccc(F)cc1 (configuration not stated) [N-{1-(4-Fluoro-phenyl)-4-[4-(5-fluoro-pyrimidin-2-yl)-piperazin-1-yl]-butyl}-acetamide]	> 0.049 µM
O=C(NC(CCCN1CCN(c2ncc(F)cn2)CC1)c1ccc(F)cc1)c1ccc(F)cc1 (configuration not stated) [4-Fluoro-N-{1-(4-fluoro-phenyl)-4-[4-(5-fluoro-pyrimidin-2-yl)-piperazin-1-yl]-butyl}-benzamide]	> 0.1 µM
Fc1ccc(SCCCN2CCN(c3ncc(F)cn3)CC2)cc1 [5-Fluoro-2-{4-[3-(4-fluoro-phenylsulfanyl)-propyl]-piperazin-1-yl}-pyrimidine]	0.051 µM
Fc1ccc(OCCCN2CCN(c3ncc(F)cn3)CC2)cc1 [5-Fluoro-2-{4-[3-(4-fluoro-phenoxy)-propyl]-piperazin-1-yl}-pyrimidine]	0.089 µM

Now from value to compound:

IC50	Structure (SMILES)
0.023 µM	Fc1ccc(CCCCN2CCN(c3ncc(F)cn3)CC2)cc1 [5-Fluoro-2-{4-[4-(4-fluoro-phenyl)-butyl]-piperazin-1-yl}-pyrimidine]
> 0.002 µM	O=C(NC(CCCN1CCN(c2ncc(F)cn2)CC1)C1CCCCC1)c1ccc(F)cc1 (configuration not stated) [N-{1-Cyclohexyl-4-[4-(5-fluoro-pyrimidin-2-yl)-piperazin-1-yl]-butyl}-4-fluoro-benzamide]
0.215 µM	NC(CCCN1CCN(c2ncc(F)cn2)CC1)c1ccc(F)c2ccccc12 (configuration not stated) [1-(4-Fluoro-naphthalen-1-yl)-4-[4-(5-fluoro-pyrimidin-2-yl)-piperazin-1-yl]-butylamine]
0.012 µM	OC(CCCN1CCN(c2ncc(F)cn2)CC1)C1CCCCC1 (configuration not stated) [1-Cyclohexyl-4-[4-(5-fluoro-pyrimidin-2-yl)-piperazin-1-yl]-butan-1-ol]
